# “Also recorded” adds a separate entry of the source.
# T1: ANO6 (Homo sapiens, UniProt Q4KMQ2)
# T1 sequence (Q4KMQ2 1-910): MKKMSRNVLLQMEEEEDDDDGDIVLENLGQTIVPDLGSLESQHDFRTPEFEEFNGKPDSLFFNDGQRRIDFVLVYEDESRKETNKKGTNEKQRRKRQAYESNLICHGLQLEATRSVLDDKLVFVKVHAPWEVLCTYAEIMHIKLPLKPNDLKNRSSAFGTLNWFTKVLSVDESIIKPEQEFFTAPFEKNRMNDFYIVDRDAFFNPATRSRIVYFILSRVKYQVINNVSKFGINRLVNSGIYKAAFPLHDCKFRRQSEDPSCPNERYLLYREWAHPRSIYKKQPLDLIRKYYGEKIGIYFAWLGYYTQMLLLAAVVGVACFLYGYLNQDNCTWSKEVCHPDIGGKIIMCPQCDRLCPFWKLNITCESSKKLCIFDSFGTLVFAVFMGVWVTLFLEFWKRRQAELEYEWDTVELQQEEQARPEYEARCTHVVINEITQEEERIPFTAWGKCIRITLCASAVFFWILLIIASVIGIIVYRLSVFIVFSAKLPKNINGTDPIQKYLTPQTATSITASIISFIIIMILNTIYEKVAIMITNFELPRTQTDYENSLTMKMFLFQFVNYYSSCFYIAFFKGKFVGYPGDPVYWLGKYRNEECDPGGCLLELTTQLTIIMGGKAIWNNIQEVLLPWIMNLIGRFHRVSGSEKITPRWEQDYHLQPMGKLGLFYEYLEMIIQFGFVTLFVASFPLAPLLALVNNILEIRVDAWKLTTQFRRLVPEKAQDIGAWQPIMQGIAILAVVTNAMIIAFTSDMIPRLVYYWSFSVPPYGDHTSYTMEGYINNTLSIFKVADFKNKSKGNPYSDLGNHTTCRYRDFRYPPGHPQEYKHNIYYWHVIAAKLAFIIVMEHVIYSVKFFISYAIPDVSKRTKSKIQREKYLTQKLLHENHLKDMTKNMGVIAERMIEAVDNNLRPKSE
# B1: annexin V: PtdSer binding recombinant annexin V, label-free (protein, UniProt P08758 2-320, looked up)
# Annexin A5: AQVLRGTVTDFPGFDERADAETLRKAMKGLGTDEESILTLLTSRSNAQRQEISAAFKTLFGRDLLDDLKSELTGKFEKLIVALMKPSRLYDAYELKHALKGAGTNEKVLTEIIASRTPEELRAIKQVYEEEYGSSLEDDVVGDTSGYYQRMLVVLLQANRDPDAGIDEAQVEQDAQALFQAGELKWGTDEEKFITIFGTRSVSHLRKVFDKYMTISGFQIEETIDRETSGNLEQLLLAVVKSIRSIPAYLAETLYYAMKGAGTDDHTLIRVMVSRSEIDLFNIRKEFRKNFATSLYSMIKGDTSGDYKKALLLLCGEDD
# Legend:
# OT-1 CTLs = experiment: Trogocytosis assay of DiD-labeled CAFs co-cultured with OT-1 CTLs; type: cell-based, mouse; conditions: for Transfer of DiD (CAF PM uptake) from CAFs to OT-1 CTLs: 12 h co-culture, niclosamide 1 μM, clofazimine 1 μM, anti-TIM3 Ab 4 μg/ml, 25-hydroxycholesterol 4 μM
# Method: For trogocytosis between OT-1 and CAF cells, T cells were isolated from splenocytes of OTI mice (strain 021880, The Jackson Laboratory) and stimulated with OVA257-264 (1 μg/ml) for 24 hours as described.
# Cholesterol abundance in cell membranes was determined with Cholesterol Detection Assay Kit (Cayman, cat #10009779). Dissociated cells were fixed with fixative solution for 10 minutes, washed and labeled with Filipin III as per the manufacturer's instructions. Labeling with Filipin III was done by incubating in the dark for 30 minutes. After two washes for 5 minutes each, labeling was analyzed by flow cytometry (excitation: 340-380, emission: 385-470). The IFN-γ, Granzyme B and Foxp3 were detected using Foxp3/Transcription Factor Staining Buffer (00-5523-00, Thermo Fisher Scientific). Cells were stained for cell surface markers at 4° C. for 30 min followed by fixation and permeabilization buffer for 30 mins and two washes with permeabilization buffer and incubation with the indicated antibodies for 30 mins, washed with PBS twice followed by flow cytometry analysis.
# ANO6 [1] = molecular target: T1, ANO6; experiment: PtdSer externalization (annexin XII) in CAFs co-cultured with DsRed-tagged Panc-1 cells; type: cell-based; set-up: this increase was observed only in control CAFs (ANO6-proficient) engaged in physical contacts with DsRed-tagged Panc-1 cells; endogenous in cells; host or cells: human CAFs in co-culture with DsRed-tagged Panc-1 cells; conditions: BTP2 10 μM; clofazimine 1 μM; niclosamide
# Method: (§1) CAFs were seeded in 24-well glass bottom plates (cat. #81156, Ibidi, Fitchburg, WI) at a density of 20,000 cells per well. Cells were then treated with niclosamide (1 μM) for 2 h. After one wash with FBS-free media at RT, cells were incubated with 250 μl of 1:100 annexin XII and 1:200 propidium iodide (pSIVA Abcam #ab129817), with or without 10 μM ionomycin. Cells were then incubated (5 min 37C) and imaged by fluorescence microscopy using a Nikon A1 camera (Nikon) linked to a Nikon Eclipse Ti2-E Inverted Microscope Imaging System (Nikon) for each channel. Fifteen images per well were acquired.
# [2] = system: store-operated calcium entry (SOCE) in CAFs; experiment: Cytosolic calcium (Fluo4) in CAFs co-cultured with Panc-1 cells; type: cell-based, human; conditions: indicated concentrations of inhibitors, Fluo4 measured 5 minutes after addition
# Method: CAF (5×10^3) and PDAC ([…]) cells were incubated (separately or in co-culture) on coverslips for 12 hrs before loading with the calcium indicator Fluo4-AM (5 μM; Invitrogen, Eugene, OR) in DMEM supplemented with HEPES and 0.5% FBS and incubated at 37° C., 5% CO2 for 30 min. Cells were washed in DMEM before incubating for an additional 30 minutes at 37° C., 5% CO2 to permit de-esterification of the dye. Fluorescence emissions at 506 nm in response to excitation at 494 nm were monitored for 60 cycles at a frequency of 0.33 Hz using a Leica SP8 laser scanning microscope (Buffalo Grove, IL) at 37° C. with 5% CO2. Intracellular Ca2+measurements are shown as absolute fluorescence obtained from 35-45 cells obtained using Leica LASX software. Averaged results±SEM from at least three independent experiments were analyzed by one-way ANOVA with GraphPad Prism. […]
# CAF (5×10^3) cells were incubated on coverslips for 12 hrs before loading with the calcium indicator Fura2-AM (2 μM; Invitrogen, Eugene, OR) in cation-safe solution (107 mM NaCl, 7.2 mM KCl, 1.2 mM MgCl2, 11.5 mM glucose, 20 mM Hepes-NaOH, 1 mM CaCl2, pH 7.2) for 30 min at 24° C. as previously described. Cells were washed, and dye was allowed to de-esterify for a minimum of 30 min at 24° C. Cells were treated with Vehicle control, […] CM462, or 1 μM BTP2 along with 2 μM Thapsigargin for 10 minutes. After Ca2+ levels returned to their baseline, 1 mM Ca2+ was added. Ca2+ measurements were made using a Leica DMI 6000B fluorescence microscope controlled by Slidebook Software (Intelligent Imaging Innovations; Denver, CO). Fluorescence emission at 505 nm was monitored while alternating between 340 and 380 nm excitation wavelengths at a frequency of 0.67 Hz; intracellular Ca2+ measurements are shown as 340/380 nm ratios obtained from groups (20-25) of single cells.
# PDAC cells = experiment: Trogocytosis of CAF membranes by PDAC cells with cytoskeleton inhibitors; type: cell-based; conditions: cytoskeleton (actin polymerization) inhibitors
# Method: (§2) To label cellular membranes, pairs of lipophilic fluorescent dyes were used according to the manufacturer's instructions in the following combinations: 1) adherent CAFs were stained with 1 μM PKH67 (Sigma-Aldrich), Panc-1 were stained in suspension with 10 μM CellTracker™ orange CMCMR (Thermo Fisher Scientific); 2) CAFs labeled with 0.5 μM BODIPY-cholesterol (Topfluor Cholesterol, #DO-016545, Avanti Polar Lipids) dissolved in 0.1 mM methyl-beta-cyclodextrin (#C4555, Sigma) with 2 μM cholesterol (#C8667, Sigma-Aldrich) in MEM media at 37° C. for 30 min in suspension; murine or human (Panc-1) PDAC cells were stained in suspension with CPD670 (#65-0840-85, Thermo Fisher Scientific). After labeling, CAFs were co-incubated for the indicated time intervals with PDAC cells in 12-well culture plates at ratio of 2:1 in 0.5% DMEM media. Co-cultures of CAFs and PDAC cells for 3 minutes on ice minutes were used as negative controls. In experiments assessing the effect of extracellular calcium on trogocytosis, cells were co-cultured in Phosphate Buffered Saline (PBS) containing calcium and magnesium (D8662, Sigma-Aldrich) or in PBS without calcium and magnesium (D8537, Sigma-Aldrich). After co-cultures, cells were collected and pelleted by centrifugation (5 min, 1500 rpm), resuspended in 10% formalin (Sigma) for 10 min at RT, washed and re-suspended in PBS/1% BSA. Trogocytosis was measured as the acquisition of CAF-specific fluorescence in PDAC cells by flow cytometry on MACSQuant® VYB Flow Cytometer (Miltenyi Biotec) or FACScan analyzer (BD Biosciences). Analysis of dual staining was done using FlowJo software (10.8.1, BD Biosciences). Live cells were gated based on FSC/SSC parameters, then single cells were gated based on SSC-A/SSC-H.
# Panc-1 cells = experiment: Trogocytosis of PKH67-labeled CAF membranes by Panc-1 cells in co-culture (flow cytometry); type: cell-based, human; conditions: 3 mM EGTA, mean fluorescence intensity normalized to vehicle
# Method: as §2, with “After co-cultures, cells were collected and pelleted by centrifugation (5 min, 1500 rpm), resuspended in 10% formalin (Sigma) for 10 min at RT, washed and re-suspended in PBS/1% BSA.” left out, “Analysis of dual staining was done using FlowJo software (10.8.1, BD Biosciences). Live cells were gated based on FSC/SSC parameters, then single cells were gated based on SSC-A/SSC-H.” left out
# ANO6 [3] = molecular target: T1, ANO6; experiment: Phosphatidylserine externalization assay in CAFs pulsed with ionomycin (annexin XII); type: cell-based; set-up: endogenous in cells; host or cells: human patient-derived, hTERT-immortalized pancreatic cancer-associated fibroblasts (CAFs)
# Method: as §1
# KPCN349 cells = experiment: Trogocytosis of BODIPY-cholesterol labeled CAF membranes by KPCN349 cells with PtdSer masking; type: cell-based, murine; conditions: 100 nM Annexin-V or 100 nM Zn-DPA; CAFs pre-treated 2 h, maintained in co-culture
# Method: as §2, with “After co-cultures, cells were collected and pelleted by centrifugation (5 min, 1500 rpm), resuspended in 10% formalin (Sigma) for 10 min at RT, washed and re-suspended in PBS/1% BSA.” left out, “Analysis of dual staining was done using FlowJo software (10.8.1, BD Biosciences). Live cells were gated based on FSC/SSC parameters, then single cells were gated based on SSC-A/SSC-H.” left out
molecule,measurement,setting,value
C[C@H](CCCC(C)(C)O)[C@H]1CC[C@H]2[C@@H]3CC=C4C[C@@H](O)CC[C@]4(C)[C@H]3CC[C@]12C [25-hydroxycholesterol],Ability of CAFs to inhibit IFN-γ production by the CTLs,OT-1 CTLs; 12 h co-culture with CAFs,reduced the ability of CAFs to inhibit IFN-γ production
same,Transfer of DiD (CAF PM uptake) from CAFs to OT-1 CTLs,OT-1 CTLs,effectively inhibited the transfer of DiD
Cc1nnsc1C(=O)Nc1ccc(-n2nc(C(F)(F)F)cc2C(F)(F)F)cc1 [BTP2],PtdSer externalization (annexin XII) in CAFs co-cultured with Panc-1 cells,ANO6 [1],suppressed PtdSer externalization; also recorded: blocked
same,Cytosolic Ca2+ elevation (Fluo4 signal) in CAFs engaged in cell-cell contacts with PDAC (Panc-1) cells,[2],effectively blocked cytosolic Ca2+ elevation; also recorded: abrogated Fluo4 fluorescent signal
C=C1[C@@H](C)[C@H]2[C@H](Cc3ccccc3)NC(=O)[C@]23[C@H](OC(C)=O)/C=C/[C@@](C)(O)C(=O)[C@@H](C)C/C=C/[C@H]3[C@@H]1O [Cytochalasin D],Uptake of CAF PMs by PDAC cells,PDAC cells,suppressed uptake of CAF PMs
same,Uptake of CAF PMs by PDAC cells,PDAC cells; listed as cytochalasin D,partially suppressed
O=C(N/N=C/c1ccc(O)c(O)c1)c1cc2ccccc2cc1O [Dynasore],Trogocytosis of CAF membranes / uptake of membrane lipids from human CAFs by Panc-1 cells,Panc-1 cells; listed as dynasore,did not affect the uptake
O=C(O)CN(CCOCCOCCN(CC(=O)O)CC(=O)O)CC(=O)O [EGTA],Trogocytosis of CAF membranes / uptake of membrane lipids from human CAFs by Panc-1 cells,Panc-1 cells,inhibited
same,PtdSer externalization in CAFs with extracellular calcium chelator,"ANO6 [3]; 1 μM ionomycin 5 minutes, 2 mM EGTA, annexin XII",blocked
C/C1=C/C(=O)O[C@@H]2C[C@@H](CC[C@H](C)/C=C\CC1)O[C@@](O)([C@@H]1CSC(=O)N1)C2 [Latrunculin B],Uptake of CAF PMs by PDAC cells,PDAC cells,suppressed uptake of CAF PMs
COc1ccc2c(c1)CC[C@@H]1[C@@H]2CC[C@]2(C)[C@@H](NCCCCCCN3C(=O)C=CC3=O)CC[C@@H]12 [U73122],Cytosolic Ca2+ elevation (Fluo4 signal) in CAFs engaged in cell-cell contacts with PDAC (Panc-1) cells,[2],no effect on Fluo4 signal
C[C@H](CCC(=O)O)C[C@H](C)C[C@H](C)C(=O)/C=C(\O)[C@H](C)C[C@H](C)C/C=C/[C@@H](C)[C@@H](O)[C@@H](C)[C@@H](O)C[C@@H]1CC[C@@](C)([C@H]2CC[C@@](C)([C@@H](C)O)O2)O1 [ionomycin],Cytoplasmic calcium in control CAFs,ANO6 [3]; calcium ionophore treatment,increased cytoplasmic calcium
same,PtdSer externalization to the PM in control CAFs,ANO6 [3]; calcium ionophore treatment,led these cells to externalize PtdSer
Cc1cccc(F)c1C(=O)Nc1cnc(-c2cc3c(cc2Cl)OC(F)(F)O3)cn1 [zegocractin],Cytosolic Ca2+ elevation (Fluo4 signal) in CAFs engaged in cell-cell contacts with PDAC (Panc-1) cells,[2],abrogated Fluo4 fluorescent signal
same,Cytosolic Ca2+ elevation (Fluo4 signal) in CAFs engaged in cell-cell contacts with PDAC (Panc-1) cells,[2]; listed as zegocratin,effectively blocked cytosolic Ca2+ elevation
bis-Zn-dipicolylamine [Zn-DPA],Uptake of BODIPY-labeled CAF membranes by KPCN349 cells,KPCN349 cells,significantly reduced uptake; also recorded: antagonizes trogocytosis
lantrinculin A,Uptake of CAF PMs by PDAC cells,PDAC cells,partially suppressed
B1,Transfer of DiD (CAF PM uptake) from CAFs to OT-1 CTLs,OT-1 CTLs,significantly reduced CAF PM uptake
same,Uptake of BODIPY-labeled CAF membranes by KPCN349 cells,KPCN349 cells,significantly reduced uptake; also recorded: antagonizes trogocytosis
